Results: ChEMBL document CHEMBL5715952 (Oncotarget, 2015)

How the values were obtained:
[1] = Inhibition of VEGFR1/PDGFR/cKIT/RET in human RPMI-8226 cells assessed as reduction of cell growth incubated for 72 hrs by CellTiter 96 aqueous one solution cell proliferation assay; assay type: cell-based; conditions: RPMI-8226, 72 h
[2] = Inhibition of VEGFR2/PDGFR/cKIT/RET in human RPMI-8226 cells assessed as reduction of cell growth incubated for 72 hrs by CellTiter 96 aqueous one solution cell proliferation assay; assay type: cell-based; conditions: RPMI-8226, 72 h
[3] = Inhibition of VEGFR3/PDGFR/cKIT/RET in human RPMI-8226 cells assessed as reduction of cell growth incubated for 72 hrs by CellTiter 96 aqueous one solution cell proliferation assay; assay type: cell-based; conditions: RPMI-8226, 72 h
[4] = Inhibition of VEGFR1/PDGFR/cKIT/RET in bortezomib Resistant human RPMI-8226 cells assessed as reduction of cell growth incubated for 72 hrs by CellTiter 96 aqueous one solution cell proliferation assay; assay type: cell-based; conditions: Bortezomib-resistant RPMI-8226, 72 h
[5] = Inhibition of VEGFR2/PDGFR/cKIT/RET in bortezomib Resistant human RPMI-8226 cells assessed as reduction of cell growth incubated for 72 hrs by CellTiter 96 aqueous one solution cell proliferation assay; assay type: cell-based; conditions: Bortezomib-resistant RPMI-8226, 72 h
[6] = Inhibition of VEGFR3/PDGFR/cKIT/RET in bortezomib Resistant human RPMI-8226 cells assessed as reduction of cell growth incubated for 72 hrs by CellTiter 96 aqueous one solution cell proliferation assay; assay type: cell-based; conditions: Bortezomib-resistant RPMI-8226, 72 h
[7] = Inhibition of VEGFR1/PDGFR/cKIT/RET in Melphalan Resistant human RPMI-8226 cells assessed as reduction of cell growth incubated for 72 hrs by CellTiter 96 aqueous one solution cell proliferation assay; assay type: cell-based; conditions: Melphalan-resistant RPMI-8226 cell
[8] = Inhibition of VEGFR2/PDGFR/cKIT/RET in Melphalan Resistant human RPMI-8226 cells assessed as reduction of cell growth incubated for 72 hrs by CellTiter 96 aqueous one solution cell proliferation assay; assay type: cell-based; conditions: Melphalan-resistant RPMI-8226 cell
[9] = Inhibition of VEGFR3/PDGFR/cKIT/RET in Melphalan Resistant human RPMI-8226 cells assessed as reduction of cell growth incubated for 72 hrs by CellTiter 96 aqueous one solution cell proliferation assay; assay type: cell-based; conditions: Melphalan-resistant RPMI-8226 cell
[10] = Inhibition of VEGFR1/PDGFR/cKIT/RET in human ANBL-6 cells assessed as reduction of cell growth incubated for 72 hrs by CellTiter 96 aqueous one solution cell proliferation assay; assay type: cell-based; conditions: ANBL-6, 72 h
[11] = Inhibition of VEGFR2/PDGFR/cKIT/RET in human ANBL-6 cells assessed as reduction of cell growth incubated for 72 hrs by CellTiter 96 aqueous one solution cell proliferation assay; assay type: cell-based; conditions: ANBL-6, 72 h
[12] = Inhibition of VEGFR3/PDGFR/cKIT/RET in human ANBL-6 cells assessed as reduction of cell growth incubated for 72 hrs by CellTiter 96 aqueous one solution cell proliferation assay; assay type: cell-based; conditions: ANBL-6, 72 h
[13] = Inhibition of VEGFR1/PDGFR/cKIT/RET in human bortezomib-resistant ANBL6 cells assessed as reduction of cell growth incubated for 72 hrs by CellTiter 96 aqueous one solution cell proliferation assay; assay type: cell-based
[14] = Inhibition of VEGFR2/PDGFR/cKIT/RET in human bortezomib-resistant ANBL6 cells assessed as reduction of cell growth incubated for 72 hrs by CellTiter 96 aqueous one solution cell proliferation assay; assay type: cell-based
[15] = Inhibition of VEGFR3/PDGFR/cKIT/RET in human bortezomib-resistant ANBL6 cells assessed as reduction of cell growth incubated for 72 hrs by CellTiter 96 aqueous one solution cell proliferation assay; assay type: cell-based
[16] = Inhibition of VEGFR1/PDGFR/cKIT/RET in human U-266 cells assessed as reduction of cell growth incubated for 72 hrs by CellTiter 96 aqueous one solution cell proliferation assay; assay type: cell-based; conditions: U-266, 72 h
[17] = Inhibition of VEGFR2/PDGFR/cKIT/RET in human U-266 cells assessed as reduction of cell growth incubated for 72 hrs by CellTiter 96 aqueous one solution cell proliferation assay; assay type: cell-based; conditions: U-266, 72 h
[18] = Inhibition of VEGFR3/PDGFR/cKIT/RET in human U-266 cells assessed as reduction of cell growth incubated for 72 hrs by CellTiter 96 aqueous one solution cell proliferation assay; assay type: cell-based; conditions: U-266, 72 h
[19] = Ratio of IC50 for inhibition of VEGFR1/PDGFR/cKIT/RET in human RPMI-8226 cells assessed as reduction of cell viability to IC50 for inhibition of VEGFR1/PDGFR/cKIT/RET in human melphalan-resistant RPMI-8226 cells assessed as reduction of cell viability; conditions: time 72 hrs; condition multiple myeloma
[20] = Ratio of IC50 for inhibition of VEGFR2/PDGFR/cKIT/RET in human RPMI-8226 cells assessed as reduction of cell viability to IC50 for inhibition of VEGFR2/PDGFR/cKIT/RET in human melphalan-resistant RPMI-8226 cells assessed as reduction of cell viability; conditions: time 72 hrs; condition multiple myeloma
[21] = Ratio of IC50 for inhibition of VEGFR3/PDGFR/cKIT/RET in human RPMI-8226 cells assessed as reduction of cell viability to IC50 for inhibition of VEGFR3/PDGFR/cKIT/RET in human melphalan-resistant RPMI-8226 cells assessed as reduction of cell viability; conditions: time 72 hrs; condition multiple myeloma
[22] = Ratio of IC50 for inhibition of VEGFR1/PDGFR/cKIT/RET in human RPMI-8226 cells assessed as reduction of cell viability to IC50 for inhibition of VEGFR1/PDGFR/cKIT/RET in human RPMI-8226/BR resistant cells assessed as reduction of cell viability; conditions: condition multiple myeloma
[23] = Ratio of IC50 for inhibition of VEGFR2/PDGFR/cKIT/RET in human RPMI-8226 cells assessed as reduction of cell viability to IC50 for inhibition of VEGFR2/PDGFR/cKIT/RET in human RPMI-8226/BR resistant cells assessed as reduction of cell viability; conditions: condition multiple myeloma
[24] = Ratio of IC50 for inhibition of VEGFR3/PDGFR/cKIT/RET in human RPMI-8226 cells assessed as reduction of cell viability to IC50 for inhibition of VEGFR3/PDGFR/cKIT/RET in human RPMI-8226/BR resistant cells assessed as reduction of cell viability; conditions: condition multiple myeloma
[25] = Ratio of IC50 for inhibition of VEGFR1/PDGFR/cKIT/RET in human ANBL6 cells assessed as reduction of cell viability to IC50 for inhibition of VEGFR1/PDGFR/cKIT/RET in human ANBL6/BR resistant cells assessed as reduction of cell viability; conditions: condition multiple myeloma
[26] = Ratio of IC50 for inhibition of VEGFR2/PDGFR/cKIT/RET in human ANBL6 cells assessed as reduction of cell viability to IC50 for inhibition of VEGFR2/PDGFR/cKIT/RET in human ANBL6/BR resistant cells assessed as reduction of cell viability; conditions: condition multiple myeloma
[27] = Ratio of IC50 for inhibition of VEGFR3/PDGFR/cKIT/RET in human ANBL6 cells assessed as reduction of cell viability to IC50 for inhibition of VEGFR3/PDGFR/cKIT/RET in human ANBL6/BR resistant cells assessed as reduction of cell viability; conditions: condition multiple myeloma
[28] = Ratio of IC50 for inhibition of hedgehog in human RPMI-8226 cells assessed as reduction of cell viability to IC50 for inhibition of hedgehog in human melphalan-resistant RPMI-8226 cells assessed as reduction of cell viability; conditions: time 72 hrs; condition multiple myeloma
[29] = Ratio of IC50 for inhibition of hedgehog in human RPMI-8226 cells assessed as reduction of cell viability to IC50 for inhibition of hedgehog in human RPMI-8226/BR resistant cells assessed as reduction of cell viability; conditions: condition multiple myeloma
[30] = Ratio of IC50 for inhibition of hedgehog in human ANBL6 cells assessed as reduction of cell viability to IC50 for inhibition of hedgehog in human ANBL6/BR resistant cells assessed as reduction of cell viability; conditions: condition multiple myeloma
cells [31] = conditions: Homo sapiens, RPMI-8226, 72 h
cells [32] = conditions: Homo sapiens, Bortezomib-resistant RPMI-8226, 72 h
cells [33] = conditions: Homo sapiens, Melphalan-resistant RPMI-8226 cell, 72 h
cells [34] = conditions: Homo sapiens, ANBL-6, 72 h
cells [35] = conditions: Homo sapiens, Bortezomib-resistant ANBL6 cell, 72 h
cells [36] = conditions: Homo sapiens, U-266, 72 h

CC1(C)CNc2cc(NC(=O)c3cccnc3NCc3ccncc3)ccc21 [MOTESANIB]
IC50 [1]: 10 µM | IC50 [2]: 10 µM | IC50 [3]: 10 µM | IC50 [4]: 10 µM | IC50 [5]: 10 µM | IC50 [6]: 10 µM | IC50 [7]: 10 µM | IC50 [8]: 10 µM | IC50 [9]: 10 µM | IC50 [10]: 10 µM | IC50 [11]: 10 µM | IC50 [12]: 10 µM | IC50 [13]: 10 µM | IC50 [14]: 10 µM | IC50 [15]: 10 µM | IC50 [16]: 10 µM | IC50 [17]: 10 µM | IC50 [18]: 10 µM | Ratio IC50 [19]: 1 | Ratio IC50 [20]: 1 | Ratio IC50 [21]: 1 | Ratio IC50 [22]: 1 | Ratio IC50 [23]: 1 | Ratio IC50 [24]: 1 | Ratio IC50 [25]: 1 | Ratio IC50 [26]: 1 | Ratio IC50 [27]: 1

CS(=O)(=O)c1ccc(C(=O)Nc2ccc(Cl)c(-c3ccccn3)c2)c(Cl)c1 [VISMODEGIB]
Ratio IC50 [28]: 1 | Ratio IC50 [29]: 1 | Ratio IC50 [30]: 1 | IC50 (cells [31]): 10 µM | IC50 (cells [32]): 10 µM | IC50 (cells [33]): 10 µM | IC50 (cells [34]): 10 µM | IC50 (cells [35]): 10 µM | IC50 (cells [36]): 10 µM
